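In this assay, cells in 96-well plates receive the compound at five concentrations for 48 hours. Endpoints are linearly interpolated between the surrounding concentrations. At the TGI there is no net growth.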
How the values were obtained:
Assay in all cases: DTP human tumour cell line panel, 48 h
[1] = system: EKVX NSCLC
[2] = system: UO-31 renal
[3] = system: NCI-H23 lung
[4] = system: NCI-H522 lung
[5] = system: HOP-62 NSCLC
[6] = system: T-47D breast
[7] = system: SF-268 CNS
[8] = system: DU-145 prostate
[9] = system: PC-3 prostate
[10] = system: LOX IMVI melanoma
[11] = system: SW-620 colon
[12] = system: HT29 colon
[13] = system: SF-539 CNS
[14] = system: KM12 colon
[15] = system: A549 NSCLC
[16] = system: SF-295 CNS
[17] = system: SNB-75 CNS
[18] = system: OVCAR-8 ovarian
[19] = system: HCT-116 colon
[20] = system: SN12C renal
[21] = system: U251 CNS
[22] = system: NCI/ADR-RES ovarian
[23] = system: CAKI-1 renal
[24] = system: ACHN renal
[25] = system: COLO 205 colon
[26] = system: OVCAR-5 ovarian
[27] = system: MDA-MB-435
[28] = system: SK-MEL-5 melanoma
[29] = system: TK-10 renal
[30] = system: MDA-MB-231 breast
[31] = system: OVCAR-3 ovarian
[32] = system: K-562 leukemia
[33] = system: MOLT-4 leukemia
[34] = system: M14 melanoma
[35] = system: NCI-H460 lung
[36] = system: CCRF-CEM leukemia
[37] = system: OVCAR-4 ovarian
[38] = system: A498 renal
[39] = system: HOP-92 NSCLC
[40] = system: SK-OV-3 ovarian
[41] = system: UACC-257 melanoma
[42] = system: SK-MEL-2 melanoma
[43] = system: SR leukemia
[44] = system: 786-0 renal
[45] = system: HL-60(TB) leukemia
[46] = system: MDA-N
[47] = system: HCT-15 colon
[48] = system: MCF7 breast
[49] = system: SNB-19 CNS
[50] = system: IGROV1 ovarian
[51] = system: RPMI-8226 leukemia
[52] = system: HS 578T breast
[53] = system: BT-549 breast
[54] = system: UACC-62 melanoma
[55] = system: SK-MEL-28 melanoma
[56] = system: NCI-H226 lung
[57] = system: RXF 393 renal
[58] = system: HCC-2998 colon
[59] = system: MALME-3M melanoma

Measured: TGI

O=C(Cn1nnc(-c2ccccc2)n1)N/N=C/c1cn(Cc2ccc(Cl)cc2Cl)c2ccccc12
not listed: [55] | [56] | [57] | [58] | [59]
> 100 µM: all other assays above

CCOC(=O)N1CCC2(CC1)CC(=O)N(Nc1ccccc1)C2=O
not listed: [4]
> 100 µM: all other assays above

CC(C)N(C(=O)C12C3(C(=O)OC(C)(C)C)C4C5(C#N)C3C1(C(=O)OC(C)(C)C)C5C42C(=O)OC(C)(C)C)C(C)C (configuration not stated)
43.9 µM: [48]
41.8 µM: [17]
69.6 µM: [43]
40.1 µM: [33]
29 µM: [10]
73.5 µM: [19]
30.9 µM: [36]
not listed: [40] | [51] | [56] | [59]
> 100 µM: all other assays above
